Laboratory results taken from ChEMBL document CHEMBL1131056, “Rational design of antitumor prostaglandins with high biological stability” (J Med Chem, 1998).
≈ marks a conversion by molar mass, not a printed value.

System: Colon 26
Test: Antiproliferative Activity against colon 26 cancer cells
Format: functional, cell-based
Conditions: Mus musculus

SMILES	IC50 [µg/mL]
CCCCC[C@@H](O)/C=C/[C@@H]1C=CC(=O)/C1=C/CCCCCC(=O)O	0.5 (≈ 1.49 µM)
CCCCCC/C=C/[C@@H]1C=CC(=O)/C1=C/CCCCCC(=O)O	0.23 (≈ 0.722 µM)
CCCCC[C@H](O)/C=C/[C@@H]1C=CC(=O)/C1=C/CCCCCC(=O)O	0.35 (≈ 1.05 µM)
CCCCC[C@H](O)/C=C/[C@H]1C=CC(=O)/C1=C/CCCCCC(=O)O	0.57 (≈ 1.7 µM)

System: A 172
Test: Growth inhibition time for A172 Human Glioma cell growth at concentration 5 uM
Format: functional
Conditions: not given

SMILES	Inhibition period [h]
CCCCC[C@H](O)/C=C/[C@@H]1C=CC(=O)/C1=C/CCCCCC(=O)OC	>72
CCCCC[C@H](O)/C=C/[C@H]1C=CC(=O)/C1=C/CCCCCC(=O)OC	<48
CCCCC[C@@H](O)/C=C/[C@@H]1C=CC(=O)/C1=C/CCCCCC(=O)OC	>72
